How the values were obtained:
CLL cells in PBMCs = experiment: CLL burden in B-I09-injected MD4+/−/Eμ-TCL1+/+ mice; format: in vivo, mouse; conditions: 50 mg/kg intraperitoneally, days 1-5 and 8-12
Description: FIGS. 24A-24J illustrate the finding that targeting XBP-1s in CLL cells of MD4^+/−/Eμ-TCL1^+/+ mice leads to reduced production of sIgM, and decreased numbers and function of granulocytic MDSCs. (FIG. 24A) The levels of IgM in the sera of MD4^+/−/Eμ-TCL1^+/+ and XBP-1^KO/MD4^+/−/Eμ-TCL1^+/+ mice were determined by ELISA. (FIG. 24B) Blood cells collected from MD4^+/−/Eμ-TCL1^+/+ and XBP-1^KO/MD4^+/−/Eμ-TCL1^+/+ mice were treated with RBC lysis buffer, and stained with CD11c-BV421, CD11b-PE, Ly6C-Alexa 488 and Ly6G-Alexa 647. Gated CD11c−/CD11b+ populations were analyzed for Ly6C^intermediate/Ly6G+ granulocytic MDSCs and Ly6C+/Ly6G− monocytic MDSCs. […] Gated CD11b+/Ly6C^intermediate/Ly6G+ granulocytic MDSCs were analyzed for the expression of Arg-1. (FIG. 24F) Mean fluorescence intensity (MFI) of Arg-1 in gated CD11b+/Ly6C^intermediate/Ly6G+ granulocytic MDSCs from spleens of 5 MD4^+/−/Eμ-TCL1^+/+ and 5 XBP-1^KO/MD4^+/−/Eμ-TCL1^+/+ mice was plotted as mean±SEM. […] The ^3H-thymidine uptake was measured, and the percentages of proliferation were calculated by comparing to the positive control and plotted as mean±SEM. […] The percentage of CLL cells in PBMCs for each mouse was determined by flow cytofluorometry on day 6 and day 13, and compared with the CLL burden data of the mouse on day 0 (100%). […]

WaC3 cells = conditions: cited from earlier work

O=c1oc2c(C3OCCCO3)c(O)ccc2c2c1CNCC2 [Compound 4, 7-(1,3-dioxan-2-yl)-8-hydroxy-1,2,3,4-tetrahydro-5H-chromeno[3,4-c]pyridin-5-one]
CLL burden in peripheral blood (CLL cells in PBMCs): leukemic regression was observed | sensitivity of WaC3 cells (WaC3 cells): sensitive
